From US20040014697A1, “Melanoma antigenic peptides” (priority 1998, published 2004) come the findings set out here.

This assay relates to Hurley RI 000 tumor infiltrating lymphocytes (cytotoxic T cell specific for the G9-209 epitope encoded by the human melanoma associate protein gp100). In words: sensitization of tumor infiltrating lymphocytes and interferon-γ release. The assay is classed as cell-based. The settings on record: Hurley RI 000 TIL, G9-209 (gp100) specific. The source says:
This invention provides novel, synthetic peptide sequences which are useful as components of melanoma vaccines and to expand immune effector cells that are specific for melanoma. […] These assay methods are known in the art and disclosed in Zugel, U. et al. (1998) J Immunol. 161:1705-1709) and Salgaller, M. L. et al. (1995) Infra. The peptide sequences of the present invention differ from the natural epitope (ITDQVPFSV) (Seq. ID No. 5) in two ways: (1) they contain mutation sin the putative HLA-A2 binding domain (amino acid residues 1, 2, and 9) conferring tighter binding to the MHC, and (2) they contain mutations in the putative T cell receptor-binding domain (amino acid residues 3-8) resulting in an apparent increased avidity for the T cell receptor. They also are novel over the synthetic peptides disclosed by Salgaller, et al. (1995) Cancer Res. 55:4972-4979.

For FLFSWYAXV, the “sensitize tumor infiltrating lymphocytes and interferon-γ release” value is “shown to sensitize”.

As for FLDQVAFXV, the “sensitize tumor infiltrating lymphocytes and interferon-γ release” value is given as “shown to sensitize”.
